Reference: ChEMBL document CHEMBL1126682, “Quinolone antimicrobial agents substituted with morpholines at the 7-position. Syntheses and structure-activity relationships” (J Med Chem, 1993)
Converted amounts (≈) assume the structure as drawn.

Assays:
[1] = tested on: Escherichia coli; test: Minimum inhibition concentration against Escherichia coli NIHJ JC-2 strain; type: functional
[2] = tested on: Enterococcus faecalis; test: Minimum inhibition concentration against Enterococcus faecalis LS-101 strain; type: functional
[3] = tested on: Pseudomonas aeruginosa; test: Minimum inhibition concentration against Pseudomonas aeruginosa U-31 strain; type: functional
[4] = tested on: Staphylococcus aureus; test: Minimum inhibition concentration against Staphylococcus aureus FDA209P strain; type: functional
[5] = tested on: Streptococcus pneumoniae; test: Minimum inhibition concentration against Streptococcus pneumoniae Type I strain; type: functional
[6] = biological target: GABA-A receptor; anion channel; test: Inhibition of [3H]muscimol binding to GABA A receptor with 10 e-4 M 4-biphenylacetic acid; type: protein-complex assay
[7] = biological target: T1, GABA-A receptor; anion channel (Homo sapiens) (UniProt P14867+P47870+P18507+P28472+P48169+Q99928+Q9UN88+P34903+O00591+O14764+Q8N1C3+P18505+P78334+P47869+P31644+Q16445); test: Percentage of GABA-induced chloride currents with 10 e-5 M 4-biphenylacetic acid; type: functional; details: Bull Frog
[8] = biological target: T1, GABA-A receptor; anion channel (Homo sapiens); test: Percentage of GABA-induced chloride currents with 10e-4 M 4-biphenylacetic acid; type: functional; details: Bull Frog
[9] = biological target: T1, GABA-A receptor; anion channel (Homo sapiens); test: Percentage of GABA-induced chloride currents with compound alone at 10 e-4 M; type: functional; details: Bull Frog
[10] = tested on: Mus musculus; test: Percentage of mice with convulsion (400 mg/kg fenbufen); type: functional
[11] = tested on: Mus musculus; test: Percentage of mice with convulsion with compound alone at 400 mg/kg; type: functional
[12] = tested on: Staphylococcus aureus; test: Minimum inhibition concentration against Staphylococcus aureus MRSA strain; type: functional
[13] = biological target: GABA-A receptor; anion channel; test: Inhibition of [3H]muscimol binding to GABA A receptor with compound alone at 10 e-4 M; type: protein-complex assay
[14] = The compound was evaluated for the solubility in water at 25 degrees Centigrade; type: ADME
[15] = tested on: Escherichia coli; test: Minimum inhibitory concentration against Escherichia coli KC14 strain; type: functional
[16] = biological target: GABA-A receptor; anion channel; test: Inhibition of [3H]muscimol binding to GABA A receptor 4-biphenylacetic acid at 10 e-4 M; type: protein-complex assay
[17] = biological target: T1, GABA-A receptor; anion channel (Homo sapiens); test: Percentage of GABA-induced chloride currents, compound with 10E-4 M 4-biphenylacetic acid; type: functional; details: Bull Frog
[18] = tested on: Escherichia coli; test: Effective dose against Escherichia coli KC14 strain in mouse; type: functional
[19] = tested on: Staphylococcus aureus; test: Effective dose against Staphylococcus aureus smith strain in mouse; type: functional
[20] = tested on: Staphylococcus aureus; test: Minimum inhibitory concentration against Staphylococcus aureus Smith; type: functional

`NCC1CN(c2c(F)cc3c(=O)c(C(=O)O)cn(-c4cc(F)cc(F)c4)c3c2F)CCO1` (stereo not given) showed an MIC [1] of 0.39 µg/mL (≈ 0.864 µM), an MIC [2] of 0.39 µg/mL (≈ 0.864 µM) and an MIC [3] of 6.25 µg/mL (≈ 13.8 µM). The MIC [4] was 0.2 µg/mL (≈ 0.443 µM) and the MIC [5] was 0.2 µg/mL (≈ 0.443 µM).
For `CCn1cc(C(=O)O)c(=O)c2cc(F)c(N3CCOCC3)cc21`, the MIC [1] was 0.78 µg/mL (≈ 2.44 µM), the MIC [2] was 3.13 µg/mL (≈ 9.77 µM) and the IC50 [6] was > 100 µM. For the same compound, the Currents [7] was 100%, the Currents [8] was 92% and the Currents [9] was 100%. The Convulsion [10] was 0%, the Convulsion [11] was 0% and the MIC [3] was 3.13 µg/mL (≈ 9.77 µM). For the same compound, the MIC [4] was 0.2 µg/mL (≈ 0.624 µM), the MIC [5] was 12.5 µg/mL (≈ 39 µM) and the MIC [12] was 0.39 µg/mL (≈ 1.22 µM). The IC50 [13] was > 100 µM.
Compound `CCN(CC)CC1CN(c2c(F)cc3c(=O)c(C(=O)O)cn(C4CC4)c3c2F)CCO1` (stereo not given) has an MIC [1] of 0.39 µg/mL (≈ 0.896 µM), an MIC [2] of 0.39 µg/mL (≈ 0.896 µM) and an MIC [3] of 6.25 µg/mL (≈ 14.4 µM). For the same compound, the MIC [4] was 0.1 µg/mL (≈ 0.23 µM) and the MIC [5] was 0.1 µg/mL (≈ 0.23 µM).
With `O=C(O)c1cn(C2CC2)c2c(F)c(N3CCOCC3)c(F)cc2c1=O` the solubility [14] was 9 µg/mL (≈ 25.7 µM), the MIC [1] was 0.1 µg/mL (≈ 0.285 µM) and the MIC [15] was 0.1 µg/mL (≈ 0.285 µM). For the same compound, the MIC [2] was 0.78 µg/mL (≈ 2.23 µM), the IC50 ([16]; read-out: IC50) was > 100000 nM and the Currents [7] was 91%. For the same compound, the Currents [9] was 91%, the Currents [17] was 71% and the Convulsion [10] was 0%. It also gave a Convulsion [11] of 0%, an ED50 [18] of 0.056 mg mouse-1 and an ED50 [19] of 1.304 mg mouse-1. The MIC [3] was 0.78 µg/mL (≈ 2.23 µM), the MIC [4] was 0.025 µg/mL (≈ 0.0714 µM) and the MIC [20] was 0.05 µg/mL (≈ 0.143 µM). For the same compound, the MIC [5] was 0.39 µg/mL (≈ 1.11 µM), the MIC [12] was 0.05 µg/mL (≈ 0.143 µM) and the IC50 [13] was > 100 µM.
`NCC1CN(c2c(F)cc3c(=O)c(C(=O)O)cn(CCF)c3c2F)CCO1` (stereo not given) showed an MIC [1] of 6.25 µg/mL (≈ 16.2 µM), an MIC [2] of 0.78 µg/mL (≈ 2.02 µM) and an MIC [3] of 25 µg/mL (≈ 64.9 µM). For the same compound, the MIC [4] was 0.78 µg/mL (≈ 2.02 µM) and the MIC [5] was 3.13 µg/mL (≈ 8.12 µM).
For `NCCC1CN(c2c(F)cc3c(=O)c(C(=O)O)cn(C4CC4)c3c2F)CCO1` (stereo not given), the MIC [1] was 1.56 µg/mL (≈ 3.97 µM), the MIC [2] was 0.39 µg/mL (≈ 0.991 µM) and the MIC [3] was 12.5 µg/mL (≈ 31.8 µM). It also gave an MIC [4] of 0.2 µg/mL (≈ 0.508 µM) and an MIC [5] of 0.39 µg/mL (≈ 0.991 µM).
Work on `CC(=O)NCC1CN(c2c(F)cc3c(=O)c(C(=O)O)cn(C4CC4)c3c2F)CCO1` (stereo not given) yielded an MIC [1] of 1.56 µg/mL (≈ 3.7 µM), an MIC [2] of 0.78 µg/mL (≈ 1.85 µM) and an MIC [3] of 12.5 µg/mL (≈ 29.7 µM). For the same compound, the MIC [4] was 0.2 µg/mL (≈ 0.475 µM) and the MIC [5] was 0.78 µg/mL (≈ 1.85 µM).
`CCNCC1CN(c2c(F)cc3c(=O)c(C(=O)O)cn(C4CC4)c3c2F)CCO1` (stereo not given) showed an MIC [1] of 0.1 µg/mL (≈ 0.245 µM), an MIC [2] of 0.2 µg/mL (≈ 0.491 µM) and an MIC [3] of 3.13 µg/mL (≈ 7.68 µM). It also gave an MIC [4] of 0.1 µg/mL (≈ 0.245 µM) and an MIC [5] of 0.05 µg/mL (≈ 0.123 µM).
In the case of `O=C(O)c1cn(C2CC2)c2cc(N3CCNCC3)c(F)cc2c1=O` [CIPROFLOXACIN], the MIC [15] is reported as < 0.006 µg/mL, the MIC [2] is reported as 0.39 µg/mL (≈ 1.18 µM) and the IC50 [16] is reported as 410 nM. For the same compound, the Currents [7] was 0%, the Currents [9] was 64% and the Convulsion [10] was 63%. For the same compound, the Convulsion [11] was 0%, the ED50 [18] was 0.007 mg mouse-1 and the ED50 [19] was 0.354 mg mouse-1. It also gave an MIC [3] of 0.1 µg/mL (≈ 0.302 µM), an MIC [4] of 0.1 µg/mL (≈ 0.302 µM) and an MIC [20] of 0.1 µg/mL (≈ 0.302 µM). The MIC [5] was 0.39 µg/mL (≈ 1.18 µM), the MIC [12] was 1.56 µg/mL (≈ 4.71 µM) and the IC50 [13] was 100 µM.
Work on `CCn1cc(C(=O)O)c(=O)c2cc(F)c(N3CCNCC3)cc21` [NORFLOXACIN] yielded a solubility [14] of 290 µg/mL (≈ 908 µM), an MIC [1] of 0.1 µg/mL (≈ 0.313 µM) and an MIC [15] of 0.05 µg/mL (≈ 0.157 µM). It also gave an MIC [2] of 0.78 µg/mL (≈ 2.44 µM), an IC50 ([16]; read-out: IC50) of 20 nM and a Currents [7] of 0%. It also gave a Currents [9] of 38%, a Convulsion [10] of 100% and a Convulsion [11] of 0%. It also gave an ED50 [18] of 0.054 mg mouse-1, an ED50 [19] of 1 mg mouse-1 and an MIC [3] of 0.39 µg/mL (≈ 1.22 µM). The MIC [4] was 0.39 µg/mL (≈ 1.22 µM), the MIC [20] was 0.2 µg/mL (≈ 0.626 µM) and the MIC [5] was 3.13 µg/mL (≈ 9.8 µM). For the same compound, the MIC [12] was 12.5 µg/mL (≈ 39.1 µM) and the IC50 [13] was 13 µM.
`NCC1CN(c2cc3c(cc2F)c(=O)c(C(=O)O)cn3C2CC2)CCO1` (stereo not given) gave a solubility [14] of 390 µg/mL (≈ 1080 µM), an MIC [1] of 0.2 µg/mL (≈ 0.553 µM) and an MIC [15] of 0.1 µg/mL (≈ 0.277 µM). The MIC [2] was 0.2 µg/mL (≈ 0.553 µM), the IC50 ([16]; read-out: IC50) was > 100000 nM and the Currents [7] was 90%. It also gave a Currents [8] of 81%, a Currents [9] of 93% and a Convulsion [10] of 0%. The Convulsion [11] was 0%, the ED50 [18] was 0.139 mg mouse-1 and the ED50 [19] was 0.835 mg mouse-1. The MIC [3] was 1.56 µg/mL (≈ 4.32 µM), the MIC [4] was 0.2 µg/mL (≈ 0.553 µM) and the MIC [20] was 0.05 µg/mL (≈ 0.138 µM). For the same compound, the MIC [5] was 0.39 µg/mL (≈ 1.08 µM) and the IC50 [13] was > 100 µM.
For `CC1COc2c(N3CCOC(CN)C3)c(F)cc3c(=O)c(C(=O)O)cn1c23` (stereo not given), the MIC [1] was 3.13 µg/mL (≈ 8.29 µM), the MIC [2] was 3.13 µg/mL (≈ 8.29 µM) and the MIC [3] was 25 µg/mL (≈ 66.2 µM). It also gave an MIC [4] of 0.78 µg/mL (≈ 2.07 µM) and an MIC [5] of 12.5 µg/mL (≈ 33.1 µM).
